Reference: patent US8980887B2, “2-aryl imidazo[1,2-a]pyridine-3-acetamide derivatives, preparation methods and uses thereof” (Institute of Pharmacology, priority 2010, dated 2015)

Legend:
[1] = tested on: mice; test: Mice tail suspension test; type: in vivo
Source text: Experimental mechanism: mice tail suspension test was an acute behavioral despair model established by Steru et al (1985). […] This model was easy in operation, with good predictability, and was the most popular model for screening antidepressants. 1) Experimental device: an experimental frame with spacing boards which dividing the experimental frame into 2 experimental chambers (25×25×35 cm). A clamp is mounted on a through cross rod in the chamber. Male Kunming mice weighing 20-25 g. The mice were intragastrically administered with Compound 8, vehicle (distilled water, DW) or positive control drug (desipramine, DMI). After 1 h, wrap adhesive tape around the mouse's tail three quarters of the distance from the base of the tail and then suspend the animals by passing the suspension hook through the adhesive tape 5 cm above the table. The duration of immobility in the last 4 min of total 6 min test was recorded.

[2] = target: TSPO protein separated and purified from rat heart (Rattus norvegicus (Rat), UniProt P16257); test: TSPO and radioligand (3H-PK11195) competitive binding test; conditions: for Inhibition rate (%): n = 6 times
Procedure: In the present test, TSPO protein separated and purified from rat heart was used as screening target, via competitive binding test with radioligand (^3H-PK11195), to screen TSPO ligand compounds.
Wister rats, 220-260 g, female and male, were sacrificed by decapitation and the rat heart were rapidly separated, weighed and to which homogenized in 10 times volume of Tris-HCl buffer solution (50 mM Tris-HCl, 5 mM MgCl2, 1 mM EDTA, 0.5% (W/V) BSA, 1 mM PMSF, 3 μg/ml proteinase inhibitor, 0.1% NaN3, 0.32M sucrose, pH 7.4) at 15,000 rpm for 30 s, total 5 times. The homogenate was centrifuged under 1000×g for 10 minutes and the supernatant was then centrifuged under 30000×g for 20 minutes. The precipitate was collected, and resuspended with 10 times volume of Tris-HCl buffer solution (pH 7.4) relative to the original weight, then centrifuged under 30000×g for 20 minutes. The precipitate was washed with the same buffer solution, centrifuged under 30000×g for 20 minutes and the precipitate was suspended with the above buffer solution. After sub-packaged (the whole operation procedures were performed under ice bath), the product was stored at −80° C.
3) Competitive Binding Test of Drug to the Receptor (Rat Heart TSPO) and Radioligand (^3H-PK11195):
(1) tubes were placed in reaction condition of 30° C.
(2) all tubes were added with 20 μg of receptor protein in order;
(3) the test tubes were added in order with 20 μL of drugs in certain concentrations;
(4) the non-specific binding tubes were added with 20 μL of non-tagged ligand (PK11195), the final concentration of the non-tagged ligand was 0.1 mM, pre-reacted for 30 min;
(5) all tubes were added in order with 25 μL ^3H-PK11195, the final concentration of the labeled ligand was 1.5 nM;
(6) Tris-HCl Buffer pH7.4 was used to complement the reaction volumes of all tubes to reach 200 μL;
(7) the reaction was performed under 30° C. reaction condition for 1 h;
(8) Then samples were applied to 49-type glass fibre filter, vacuum suction filtered, then washed with 2 ml ice-cold Tris-HCl buffer solution (50 mM Tris-HCl buffer solution, 1 mM EDTA, 5 mM MgCl2, 1 mM PMSF, 0.1% NaN3, 3 μg/ml proteinase inhibitor, pH 7.4). The filter was dried and placed in a scintillation vial with 1 ml of scintillation fluid. The radio-activity was measured by a scintillation counter.

[3] = tested on: mice; test: Mice open field spontaneous locomotor activity test; type: in vivo; conditions: intragastric
Source text: Experimental mechanism: the aim was to observe the effects of drugs on central nervous excitation, so as to exclude false positive reactions of anxiolytic or antidepressant effects caused by central nervous excitation.
1) Experimental device: the mice open field box was a colorless transparent organic glass box (30×36×25 cm), which bottom surface was divided into 9 lattices.
2) Experimental operation: Compound 8(8^#, YL-IPA08), Compound 10(10^#, YL-IPA10), Compound 11(11^#, YL-IPA11) and Compound 13(13^#, YL-IPA13) (separately having three dose groups of 0.03, 0.3, 3 mg/kg) and blank control (distilled water, DW) were administered intragastrically, and the test started after 55 min. During test, the mice were placed in the central area of the open field spontaneous locomotor activity observation box, started timing immediately, the spontaneous activities of mice within 5 min were recorded artificially (observation indexes: number of rearings, number of crossings).

[4] = tested on: mice; test: Mice elevated plus maze test; type: in vivo
[5] = tested on: mice; test: Blocking effects of TSPO antagonist PK11195 on Compound 8 antidepressant activity in mice tail suspension test; type: in vivo; conditions: 3 mg/kg, ip
Procedure: The optimum dose (0.1 mg/kg) of YL-IPA08 in antidepressant effect of mice in tail suspension model was used to perform drug antagonism test, and the method was identical to that of Example 43, except that PK11195 group and PK11195+Compound 8 antagonism group with single intraperitoneal injection (ip) were added, wherein the antagonism group was administered by intraperitoneal injection with PK11195 simultaneously when Compound 8 was intragastrially administered.
Statistic method: the results were expressed in mean±SEM. The result was determined by two-way analysis of variance, and Bonferroni test was used for group comparison.

[6] = doses 0.03, 0.3, 3 mg/kg, 55 min after dosing, 5 min observation
[7] = 9 gradient concentrations, plotting and fitting

Row | Compound | Inhibition rate (%) ([2]; 1 × 10^−5M) | Inhibition rate (%) ([2]; 1 × 10^−7M) | Inhibition rate (%) ([2]; 1 × 10^−9M) | melting point [°C] | other results
1 | CCN(Cc1ccccn1)C(=O)Cc1c(-c2ccc(Cl)c(Cl)c2)nc2cc(C)ccn12.Cl [Compound 8, N-ethyl-N-(2-pyridinylmethyl)-2-(3,4-dichlorophenyl)-7-methylimidazo[1,2-a]pyridine-3-acetamide.hydrochloride] | 100 | 89 | 30 | 217 to 220 | optimum dose in antidepressant effect ([1]; mice tail suspension model): 0.1 mg/kg; number of rearings, number of crossings (open field spontaneous activity) versus control [3, 6]: equivalent to those of the control
2 | CCN(Cc1ccncc1)C(=O)Cc1c(-c2ccc(Cl)c(Cl)c2)nc2cc(C)ccn12.Cl [Compound 10, N-ethyl-N-(4-pyridinylmethyl)-2-(3,4-dichlorophenyl)-7-methylimidazo[1,2-a]pyridine-3-acetamide.hydrochloride] | 100 | 85 | 23 | 250 to 252 | number of rearings, number of crossings (open field spontaneous activity) versus control [3, 6]: equivalent to those of the control
3 | COCCN(Cc1ccccn1)C(=O)Cc1c(-c2ccc(Cl)c(Cl)c2)nc2cc(C)ccn12.Cl [Compound 11, N-(2-methoxyethyl)-N-(2-pyridinylmethyl)-2-(3,4-dichlorophenyl)-7-methylimidazo[1,2-a]pyridine-3-acetamide.hydrochloride] | 100 | 65 | 29 | 236 to 238 | number of rearings, number of crossings (open field spontaneous activity) versus control ([3]; dose 3 mg/kg): equivalent to the control; number of rearings, number of crossings (open field spontaneous activity) versus control ([3]; doses 0.03 and 0.3 mg/kg): lower than the control
4 | CCN(Cc1ccccc1)C(=O)Cc1c(-c2ccc(C)cc2)nc2cc(C)ccn12 [Compound 13, N-benzyl-N-ethyl-2-(4-methylphenyl)-7-methylimidazo[1,2-a]pyridine-3-acetamide] | 97 | 89 | 42 | 220 to 222 | all elevated plus maze indexes versus control ([4]; mice, dose 0.03, 0.3, 3 mg/kg): significantly lower than the control; IC50 [2, 7]: 6.99 nM; Ki [2, 7]: 2.97 nM; number of rearings, number of crossings (open field spontaneous activity) versus control [3, 6]: apparently lower than the control
5 | COCCN(CCN1CCOCC1)C(=O)Cc1c(-c2ccc(C)cc2)nc2cc(C)ccn12.Cl [Compound 25, N-(2-methoxyethyl)-N-(2-morpholinylethyl)-2-(4-methylphenyl)-7-methylimidazo[1,2-a]pyridine-3-acetamide.hydrochloride] | 31 | 0 | 0 | 165 to 167 | –
6 | COCCN(CCN1CCOCC1)C(=O)Cc1c(-c2ccc(C)cc2)nc2ccc(C)cn12.Cl [Compound 26, N-(2-methoxyethyl)-N-(2-morpholinylethyl)-2-(4-methylphenyl)-6-methylimidazo[1,2-a]pyridine-3-acetamide.hydrochloride] | 48 | 1 | 0 | 245 to 247 | –
7 | CCN(Cc1ccncc1)C(=O)Cc1c(-c2ccc(C)cc2)nc2ccc(C)cn12.Cl [Compound 27, N-ethyl-N-(4-pyridinylmethyl)-2-(4-methylphenyl)-6-methylimidazo[1,2-a]pyridine-3-acetamide.hydrochloride] | 91 | 65 | 0 | 222 to 224 | –
8 | CCN(Cc1ccncc1)C(=O)Cc1c(-c2ccc(Cl)cc2)nc2ccc(C)cn12.Cl [Compound 28, N-ethyl-N-(4-pyridinylmethyl)-2-(4-chlorophenyl)-6-methylimidazo[1,2-a]pyridine-3-acetamide.hydrochloride] | 84 | 33 | 0 | 229 to 231 | –
9 | CCC(C)N(C)C(=O)c1cc2ccccc2c(-c2ccccc2Cl)n1 (centres unmarked) [PK11195] | – | – | – | – | immobility time in mice tail suspension test, single administration versus control [5]: no significant influence
10 | CNCCCN1c2ccccc2CCc2ccccc21 [desipramine, reference compound] | – | – | – | – | minimum effective dose to generate antidepression activity ([1]; mice tail suspension test): 30 mg/kg
11 | CN1C(=O)CN=C(c2ccccc2)c2cc(Cl)ccc21 [diazepam, reference compound] | – | – | – | – | minimum effective dose for generating anxiolytic-like effects ([4]; mice elevated plus maze, ip): 2 mg/kg
